Experimental data: patent US20160193240A1, “Ulmoside-A: Useful For Prevention Or Cure Of Metabolic Diseases” (COUNCIL OF SCIENTIFIC & INDUSTRIAL RESEARCH, priority 2013, published 2016)

Columns and labels:
AdipoR1 = molecular target: T1, AdipoR1 (Homo sapiens, UniProt Q96A54); experiment: Radio-ligand saturation binding assay with 125I-ULMA, CHO cells transfected with AdipoR1
T1 construct: expressed in transfected cells; host or cells: Chinese Hamster Ovary cells (ECACC 85050302), transient transfection with Lipofectamine LTX
T1 sequence (Q96A54 1-375): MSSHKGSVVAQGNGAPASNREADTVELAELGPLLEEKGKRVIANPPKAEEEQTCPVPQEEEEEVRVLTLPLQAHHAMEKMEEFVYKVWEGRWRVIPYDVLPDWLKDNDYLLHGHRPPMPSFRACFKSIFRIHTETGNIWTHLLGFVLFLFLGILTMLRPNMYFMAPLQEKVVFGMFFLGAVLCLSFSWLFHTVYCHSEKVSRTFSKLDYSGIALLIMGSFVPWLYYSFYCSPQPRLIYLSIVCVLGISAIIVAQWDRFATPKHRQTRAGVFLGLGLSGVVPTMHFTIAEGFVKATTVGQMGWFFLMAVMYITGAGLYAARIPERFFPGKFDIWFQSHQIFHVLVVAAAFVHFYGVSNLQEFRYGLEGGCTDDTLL
Experimental: D. CHO cells transfected with empty vector or AdipoR1 or R2 expression vectors were incubated with various concentrations of ^125I-ULMA for 2 h at 4° C. Following washes, cells were lysed and count per minute was analyzed in a gamma counter. 200 fold molar excess of unlabeled ULMA was used for each concentration of radiolabeled ULMA for determining nonspecific activity. Count per minutes were normalized with total cellular protein content followed by further normalization with non-specific activity and plotted. Data is mean±SEM from three experiments performed in triplicates.
Further validation of AdipoR-ULMA interaction and its quantitation was done using a radio-ligand saturation binding assay using ^125I-ULMA. ULMA was first radiolabeled using chloramines-T method. 10 μl of ^125I (20 MBq; BARC, Mumbai, India) was added to 100 μg GTDF in 5% acetic acid/methanol, then chloramine-T (Sigma, 4 μg in MilliQ H2O) was added, and the mixture was allowed to react at room temperature (24° C.) for 5 min. […] was used for protein estimation using standard Bradford assay and rest of the lysate was used for measuring radioactivity in a gamma-counter (Cole Palmer). The count per minute was normalized with protein concentration and was further normalized with non specific binding, which was determined for every concentration of ^125I-ULMA, using 200 fold molar excess of unlabeled ULMA.

PGC-1α = PGC-1α acetylation status (immunoprecipitation, anti-acLys western) in C2C12 myotubes; type: cell-based, mouse; conditions: 10 nM, 6 hours
Experimental: C. ULMA induces PGC-1α deacetylation. C2C12 myotubes plated in 10 cm dish were treated with vehicle (0.1% vol/vol DMSO) or 10 nM ULMA in DMSO for 6 h. The cell lysates were then incubated with 5 μg anti-PGC-1α antibody (Calbiochem) for 12 h at 4° C. on a rotating wheel set at 10 RPM. 20 μl of protein A and protein G sepharose beads (Sigma; 1:1) was then added to the solution and the incubation was continued for another 2 h. The tubes were then centrifuged (1000 RPM) for 1 min and the supernatant was discarded. The pellets were washed 7 times. The beads were boiled in 50 μl 2× lammeli buffer for 5 min and cooled immediately on ice and following quick spin, the supernatants were resolved by denaturing polyacrylamide gel electrophoresis and western blotted with anti-acetylated lysine (acLys) antibody. Data represent one of three independent experiments displaying identical pattern. […]

O=C1c2c(cc(O)c([C@@H]3O[C@H](CO)[C@@H](O)[C@H](O)[C@H]3O)c2O)O[C@@H](c2ccc(O)c(O)c2)[C@@H]1O [ULMA, (2S,3S)-(+)-3′,4′,5,7-tetrahydroxydihydroflavonol-6-C-β-D-glucopyranoside]
maximum binding (BMAX) (AdipoR1): 1410 fmol/mg of protein
Kd (AdipoR1; 2 hours, ice cold, read-out: dissociation constant (Kd)): 4.9 nM
level of acetylated PGC-1α (PGC-1α): decreased
